According to ChEMBL document CHEMBL3588845, “Protozoan Parasite Growth Inhibitors Discovered by Cross-Screening Yield Potent Scaffolds for Lead Discovery” (J Med Chem, 2015):

What was measured:
[1] = test system: Trypanosoma brucei; assay: Antiparasite activity against Trypanosoma brucei 427 assessed as growth inhibition incubated for 48 hrs by PrestoBlue based fluorescence assay; type: functional, organism-based; details: Trypanosoma brucei, 427, 48 h
[2] = test system: Trypanosoma cruzi; assay: Antiparasite activity against Trypanosoma cruzi Tulahuen expressing beta-galactosidase assessed as growth inhibition incubated for 96 hrs by CPRG dye based assay; type: functional, organism-based
[3] = test system: Leishmania major; assay: Antiparasite activity against Leishmania major promastigotes assessed as growth inhibition incubated for 44 hrs by alamar blue dye based fluorescence assay; type: functional, organism-based
[4] = test system: Leishmania major; assay: Antiparasite activity against luciferase-expressing Leishmania major amastigotes isolated from infected in mouse RAW264.7 cells assessed as growth inhibition incubated for 96 hrs by luciferase reporter gene assay; type: functional, organism-based; details: RAW264.7, 96 h
[5] = test system: Plasmodium falciparum; assay: Antiparasite activity against Plasmodium falciparum D6 assessed as growth inhibition incubated for 72 hrs by SYBR green fluorescence assay; type: functional, organism-based; details: D6, 72 h
[6] = Toxicity against human HepG2 cells incubated for 48 hrs by MTT assay; type: cell-based; details: read-out: TC50
[7] = test system: Plasmodium falciparum; assay: Antiparasite activity against drug resistant Plasmodium falciparum W2 assessed as growth inhibition incubated for 72 hrs by SYBR green fluorescence assay; type: functional, organism-based; details: W2, 72 h
[8] = test system: Plasmodium falciparum; assay: Antiparasite activity against drug resistant Plasmodium falciparum C235 assessed as growth inhibition incubated for 72 hrs by SYBR green fluorescence assay; type: functional, organism-based; details: C235, 72 h

SMILES	EC50 [1]	EC50 [2]	EC50 [3]	EC50 [4]	EC50 [5]	CC50 at 48 h [6]	EC50 [7]	EC50 [8]
CN1CCCN(S(=O)(=O)c2ccc(-c3ccc4ccnc(Nc5ccc(OCc6cccc(F)c6)c(Cl)c5)c4c3)cc2)CC1	730 nM	4700 nM	1300 nM	2200 nM	86 nM	> 15000 nM	270 nM	100 nM
O=S(=O)(c1ccc(-c2ccc3c(Nc4ccc(OCc5ccccc5)c(Cl)c4)nccc3c2)cc1)N1CCOCC1	91 nM	> 50000 nM	> 15000 nM	> 3000 nM	3400 nM	> 5000 nM	3400 nM	3400 nM
CN1CCCN(S(=O)(=O)c2ccc(-c3cc4ncnc(Nc5ccc(OCc6cccc(F)c6)c(Cl)c5)c4s3)cc2)CC1	–	–	–	–	–	> 15000 nM	–	–
Cc1ccc(C(=O)Nc2ccc(S(=O)(=O)O)c3cc(S(=O)(=O)O)cc(S(=O)(=O)O)c23)cc1NC(=O)c1cccc(NC(=O)Nc2cccc(C(=O)Nc3cc(C(=O)Nc4ccc(S(=O)(=O)O)c5cc(S(=O)(=O)O)cc(S(=O)(=O)O)c45)ccc3C)c2)c1 [SURAMIN]	40 nM	–	–	–	–	–	–	–
N#Cc1cnc2ccc(-c3cccc(N4CCOCC4)c3)cc2c1Nc1ccc(OCc2ccccc2)c(Cl)c1	760 nM	> 50000 nM	> 15000 nM	> 15000 nM	970 nM	> 15000 nM	820 nM	970 nM
CN1CCCN(S(=O)(=O)c2ccc(-c3cc4c(Nc5ccc(OCc6cccc(F)c6)c(Cl)c5)ncnc4s3)cc2)CC1	–	–	–	–	–	> 15000 nM	–	–
O=S(=O)(c1ccc(-c2ccc3c(Nc4ccc(OCc5ccccc5)c(Cl)c4)cnnc3c2)cc1)N1CCOCC1	1200 nM	15000 nM	> 15000 nM	> 15000 nM	150 nM	> 11000 nM	530 nM	300 nM
Fc1cccc(COc2ccc(Nc3ncnc4sc(-c5cccc(N6CCOCC6)c5)cc34)cc2Cl)c1	–	–	–	–	–	> 15000 nM	–	–
CN1CCN(S(=O)(=O)c2ccc(-c3ccc4nncc(Nc5ccc(OCc6cccc(F)c6)c(Cl)c5)c4c3)cc2)CC1	980 nM	> 50000 nM	> 15000 nM	1900 nM	130 nM	> 15000 nM	290 nM	140 nM
O=S(=O)(c1ccc(-c2cc3c(Nc4ccc(OCc5ccccc5)c(Cl)c4)ncnc3s2)cc1)N1CCOCC1	–	–	–	–	–	> 15000 nM	–	–
Fc1cccc(COc2ccc(Nc3cnnc4ccc(-c5cccc(N6CCOCC6)c5)cc34)cc2Cl)c1	1100 nM	> 50000 nM	> 15000 nM	> 15000 nM	540 nM	> 15000 nM	1500 nM	690 nM
CN1CCN(S(=O)(=O)c2ccc(-c3ccc4c(Nc5ccc(OCc6cccc(F)c6)c(Cl)c5)nccc4c3)cc2)CC1	100 nM	> 50000 nM	2700 nM	> 15000 nM	110 nM	> 15000 nM	360 nM	180 nM
O=S(=O)(c1ccc(-c2ccc3nncc(Nc4ccc(OCc5ccccc5)c(Cl)c4)c3c2)cc1)N1CCOCC1	1200 nM	> 50000 nM	> 15000 nM	> 15000 nM	820 nM	> 15000 nM	940 nM	1400 nM
C[C@@H]1[C@H](O)[C@@H](C)/C=C/C=C/C=C/C=C/C=C/C=C/C=C/[C@H](O[C@@H]2O[C@H](C)[C@@H](O)[C@H](N)[C@@H]2O)C[C@@H]2O[C@](O)(C[C@@H](O)C[C@@H](O)[C@H](O)CC[C@@H](O)C[C@@H](O)CC(=O)O[C@H]1C)C[C@H](O)[C@H]2C(=O)O [AMPHOTERICIN B]	–	–	89 nM	47 nM	–	–	–	–
Fc1cccc(COc2ccc(Nc3ccnc4cc(-c5cccc(N6CCOCC6)c5)ccc34)cc2Cl)c1	1200 nM	2700 nM	1400 nM	3700 nM	61 nM	> 5000 nM	180 nM	80 nM
Fc1cccc(COc2ccc(Nc3ncnc4cc(-c5cccc(N6CCOCC6)c5)sc34)cc2Cl)c1	–	–	–	–	–	> 15000 nM	–	–
O=C(Cn1ccnc1[N+](=O)[O-])NCc1ccccc1 [BENZNIDAZOLE]	–	1200 nM	–	–	–	–	–	–
CN1CCN(S(=O)(=O)c2ccc(-c3ccc4ncc(C#N)c(Nc5ccc(OCc6cccc(F)c6)c(Cl)c5)c4c3)cc2)CC1	1100 nM	> 50000 nM	> 15000 nM	> 15000 nM	82 nM	> 15000 nM	200 nM	110 nM

SMILES	EC50 [1]	EC50 [2]	EC50 [3]	EC50 [4]	EC50 [5]	CC50 at 48 h [6]	EC50 [7]	EC50 [8]
CN1CCN(S(=O)(=O)c2ccc(-c3ccc4ncc(C#N)c(Nc5ccc(OCc6ccccc6)c(Cl)c5)c4c3)cc2)CC1	1900 nM	> 50000 nM	4100 nM	> 15000 nM	210 nM	> 15000 nM	510 nM	260 nM
CN1CCN(S(=O)(=O)c2ccc(-c3ccc4c(Nc5ccc(OCc6cccc(F)c6)c(Cl)c5)nncc4c3)cc2)CC1	1200 nM	18000 nM	1300 nM	> 15000 nM	45 nM	> 15000 nM	130 nM	76 nM
CN1CCCN(S(=O)(=O)c2ccc(-c3ccc4c(Nc5ccc(OCc6cccc(F)c6)c(Cl)c5)ccnc4c3)cc2)CC1	87 nM	730 nM	400 nM	890 nM	94 nM	5000 nM	66 nM	67 nM
CN1CCN(S(=O)(=O)c2ccc(-c3cc4ncnc(Nc5ccc(OCc6cccc(F)c6)c(Cl)c5)c4s3)cc2)CC1	–	–	–	–	–	> 15000 nM	–	–
O=S(=O)(c1ccc(-c2ccc3c(Nc4ccc(OCc5ccccc5)c(Cl)c4)nncc3c2)cc1)N1CCOCC1	990 nM	> 50000 nM	> 15000 nM	> 15000 nM	110 nM	> 15000 nM	350 nM	170 nM
CN1CCN(S(=O)(=O)c2ccc(-c3cc4c(Nc5ccc(OCc6cccc(F)c6)c(Cl)c5)ncnc4s3)cc2)CC1	–	–	–	–	–	> 15000 nM	–	–
CN1CCCN(S(=O)(=O)c2ccc(-c3ccc4c(Nc5ccc(OCc6cccc(F)c6)c(Cl)c5)nncc4c3)cc2)CC1	510 nM	1300 nM	410 nM	1100 nM	29 nM	3400 nM	64 nM	45 nM
CN1CCN(S(=O)(=O)c2ccc(-c3ccc4ccnc(Nc5ccc(OCc6cccc(F)c6)c(Cl)c5)c4c3)cc2)CC1	1800 nM	> 50000 nM	> 15000 nM	> 15000 nM	40 nM	> 15000 nM	200 nM	89 nM
O=S(=O)(c1ccc(-c2ccc3c(Nc4ccc(OCc5ccccc5)c(Cl)c4)ccnc3c2)cc1)N1CCOCC1	240 nM	3500 nM	> 1500 nM	> 1500 nM	16 nM	> 3000 nM	44 nM	18 nM
CN1CCN(S(=O)(=O)c2ccc(-c3ccc4c(Nc5ccc(OCc6cccc(F)c6)c(Cl)c5)cnnc4c3)cc2)CC1	1000 nM	3100 nM	5700 nM	2000 nM	14 nM	> 15000 nM	55 nM	25 nM
CN1CCCN(S(=O)(=O)c2ccc(-c3ccc4nccc(Nc5ccc(OCc6cccc(F)c6)c(Cl)c5)c4c3)cc2)CC1	140 nM	930 nM	400 nM	2300 nM	86 nM	4300 nM	81 nM	110 nM
CN1CCN(S(=O)(=O)c2ccc(-c3ccc4nccc(Nc5ccc(OCc6cccc(F)c6)c(Cl)c5)c4c3)cc2)CC1	460 nM	5300 nM	600 nM	2000 nM	> 16000 nM	6400 nM	> 16000 nM	> 16000 nM
CN1CCCN(S(=O)(=O)c2ccc(-c3ccc4ncnc(Nc5ccc(OCc6cccc(F)c6)c(Cl)c5)c4c3)cc2)CC1	–	510 nM	3600 nM	2100 nM	46 nM	1100 nM	–	–
CN1CCCN(S(=O)(=O)c2ccc(-c3ccc4c(Nc5ccc(OCc6cccc(F)c6)c(Cl)c5)nccc4c3)cc2)CC1	390 nM	33000 nM	440 nM	4400 nM	410 nM	> 15000 nM	2200 nM	1000 nM
O=S(=O)(c1ccc(-c2ccc3cnnc(Nc4ccc(OCc5ccccc5)c(Cl)c4)c3c2)cc1)N1CCOCC1	860 nM	> 50000 nM	> 3400 nM	> 4000 nM	540 nM	> 5200 nM	1700 nM	1200 nM
CN1CCCN(S(=O)(=O)c2ccc(-c3ccc4cnnc(Nc5ccc(OCc6cccc(F)c6)c(Cl)c5)c4c3)cc2)CC1	620 nM	17000 nM	> 15000 nM	5600 nM	94 nM	14000 nM	250 nM	180 nM
Fc1cccc(COc2ccc(Nc3ccnc4ccc(-c5cccc(N6CCOCC6)c5)cc34)cc2Cl)c1	1000 nM	6600 nM	900 nM	4000 nM	35 nM	10000 nM	96 nM	43 nM
O=S(=O)(c1ccc(-c2cc3ncnc(Nc4ccc(OCc5ccccc5)c(Cl)c4)c3s2)cc1)N1CCOCC1	–	–	–	–	–	> 5000 nM	–	–
